Source: patent US20140051650A1, “VAGINAL COMPOSITIONS BASED ON ALKYL POLYGLUCOSIDES” (EFFIK S.A., priority 2011, published 2014)
Converted amounts (≈) assume the structure as drawn. Read-outs that look alike come from different tables or passages of the source.

Tests used:
[1] = tested on: Streptococcus agalactiae; test: Minimum Bactericidal Concentration (MBC) in liquid medium against Streptococcus agalactiae; assay type: cell-based
Method: Three Streptococcus agalactiae strains isolated from vaginal-rectal buffers during the prenatal check-ups were used for the assay. The strains were named “strain 2”, “strain 10” and “strain 11”. Isolation was carried out on a blood agar medium and identification was obtained through biochemical tests of the API 20 Strep (Bio-Mérieux) system and through the identification of the Lancefield group.
The experiments were also carried out on a Streptococcus agalactiae ATCC 12386 strain.
“Brain Heart Infusion broth” (BHIb, Becton Dickinson) medium was used for the Streptococcus agalactiae culture, “Mueller-Hinton broth” (M-Hb) medium after adding 2% “laked” horse blood and the “Mueller-Hinton agar” (M-Ha) medium with addition of defibrinated horse blood at 5% (Oxoid) were used for the antimicrobial activity assays.
The Streptococcus agalactiae strains were cultured in BHIb broth for 24 hours at 37° C. Immediately before the assay, the bacterial suspensions were diluted up to obtaining turbidity equivalent to 0.5 McFarland standard. 50 μl of a further 1:100 dilution in broth+blood at 2% were distributed in the wells of the microtitre plates. The presumed titre of the inoculum carried out through this procedure is of about 5×10^4 ufc (units forming colony)/well.
The bacterial cultures were also diluted serially according to a value 10 (up to a dilution value equivalent to 10^−7) and an aliquot of 0.1 ml of each dilution was double streaked on M-Ha +blood 5% for determining the actual titre to be used, subsequently, to determine the MBC (Minimum Bactericidal Concentration).
The assay was carried out in 96-well microtitre plates. 50 μl of M-Hb at normal concentration were deposited in the first well of each of the 5 rows. Starting from the first well of each row, […] volumes were transferred from each well to the subsequent one 10 times, thus obtaining a series of dilutions after doubling. The 12th well of each row was kept substance-free as a positive control of the bacterial growth.
Subsequently, 50 μl of bacterial inoculum of M-Hb+double concentration blood (4%) were deposited in all wells of the plate, except for the 11th of each row. Only M-Hb+double concentration blood but bacteria-free, were deposited in the 11th well, with the aim of providing negative control for each row. The described scheme was used for the assay of each of the three Streptococcus agalactiae strains.
(§1) Immediately after determining the value of the MIC for each substance, a volume equivalent to 50 μl was taken from each well and streaked on the surface of plates containing the solid medium. The plates were subsequently incubated at the conditions indicated for each microbial strain. After incubation at 37° C. for 24 hours, the number of colonies grown on the medium surface was counted thus determining the number of bacteria that survived after 24 hours of contact with the substance at the concentration present in the well. The MBC value defined as the lowest concentration of each substance capable of reducing the bacterial load by 99.9% in the previously defined assay conditions was determined through comparison between the number of bacteria that survived in each well and that of the bacterial inoculum deposited initially.

[2] = tested on: Neisseria gonorrhoeae ATCC 43069; test: MIC against Neisseria gonorrhoeae; assay type: cell-based; conditions: substance alone
Method: (§2) The Gardnerella vaginalis ATCC 14018 strain, the Neisseria gonorrhoeae ATCC 43069 strain and the Candida albicans ATCC 10231 strain were also used for the experiment.
(§3) The other assayed microbial strains were cultured in the liquid media and in the incubation conditions specified in table A, following the operating procedure described above.
(§4) The assay was carried out in 96-well microtitre plates. 50 μl of substance solution at the “mother” concentration alongside 50 μl of liquid medium at double concentration were deposited in the first well of each of the 8 rows while 50 μl of liquid medium at normal concentration were deposited in the remaining 11 wells. Starting from the first well of each row, 50 μl volumes were transferred from each well to the subsequent one 10 times, thus obtaining a series of 11 dilutions after doubling. The 12th well of each row was kept substance-free as a function of positive control of the bacterial growth.
(§5) Subsequently, 50 μl of diluted bacterial inoculum as specified previously were deposited in all wells of the plate, except for the 11th of each row. Only the liquid medium at single concentration but bacteria-free, was deposited in the 11th well, with the aim of providing negative control for each row. The described scheme was used for the assay with each of the assayed microbial strains. […]

[3] = tested on: Neisseria gonorrhoeae ATCC 43069; test: MBC against Neisseria gonorrhoeae; assay type: cell-based; conditions: substance alone
Method: as §1, with “The Gardnerella vaginalis ATCC 14018 strain, the Neisseria gonorrhoeae ATCC 43069 strain and the Candida albicans ATCC 10231 strain were also used for the experiment. [table] The other assayed microbial strains were cultured in the liquid media and in the incubation conditions specified in table A, following the operating procedure described above. Immediately” for “Immediately”

[4] = tested on: Streptococcus agalactiae; test: Minimum Inhibitory Concentration (MIC) on agarised medium against Streptococcus agalactiae; assay type: cell-based
Method: The assay was carried out on an M-Ha medium+blood at 5%. The medium was prepared at a concentration 33% higher with respect to the final one used in the test corresponding to the one indicated by the supplier. After sterilisation in autoclave, the medium was balanced at the temperature of 48° C. and added with horse blood at the concentration of 6.6% (33% higher than the final concentration of the assay). 15 ml aliquots of M-Ha medium+blood were transferred into 50 ml falcon test tubes maintained at 48° C., added with 5 ml of the dilutions of the substances to be assayed, mixed, poured into Petri dishes and left to solidify. Twenty-five bacterial inoculums, each with approximate volume of about 5 μl and containing about 10^5 ufc, were deposited on the surface of the M-Ha medium+blood of each plate. After incubation at 37° C. for 18 hours the minimum inhibitory concentration (MIC) defined as the minimum concentration of substance capable of inhibiting a bacterial growth noticeable to the naked eye at the area of deposition of the inoculums was read.
In the test with Streptococcus agalactiae the minimum inhibitory concentrations in the assay in liquid medium, regarding which only the bactericide minimum concentration values are indicated, could not be determined with sufficient reliability due to the turbidity of the solutions containing the substances. “Determination of the Minimum Inhibitory Concentration on Agarised Medium” was carried out to obtain the MIC values.

[5] = "Mother" concentration: highest concentration at which complete solubilisation could be obtained; assay type: physicochemical; conditions: propylene glycol 30% in water, aqueous with cosolvent or surfactant or cyclodextrin; solvent prop glycol 30% in water; read-out: "mother" conc. (highest concentration at which complete solubilisation could be obtained)
Method: The substances to be subjected to the analysis were prepared for the assay through dilution and sterilisation as described hereinafter.
The concentration of the substances referred to as “mother” represents the highest concentration at which complete solubilisation could be obtained and it is […] than the highest concentration assayed in the test.

[6] = tested on: Candida albicans ATCC 10231; test: MBC against Candida albicans; assay type: cell-based; conditions: substance alone
Method: as §1, with “The Gardnerella vaginalis ATCC 14018 strain, the Neisseria gonorrhoeae ATCC 43069 strain and the Candida albicans ATCC 10231 strain were also used for the experiment. [table] The other assayed microbial strains were cultured in the liquid media and in the incubation conditions specified in table A, following the operating procedure described above. Immediately” for “Immediately”

[7] = tested on: Candida albicans ATCC 10231; test: MIC against Candida albicans; assay type: cell-based; conditions: substance alone
Method: as §2, §3, §4
Subsequently, 50 μl of diluted bacterial inoculum as specified previously were deposited in all wells of the plate, except for the 11th of each row. Only the liquid medium at single concentration but bacteria-free, was deposited in the 11th well, with the aim of providing negative control for each row. The described scheme was used for the assay with each of the assayed microbial strains.
After incubation at the conditions indicated regarding each micro-organism, the microtitre plates were examined to verify, in each well, the presence or absence of bacterial growth. The minimum inhibitory concentration is defined as the lowest concentration of the substance still capable of inhibiting bacterial growth i.e. preventing the liquid from becoming turbid within the well.

[8] = tested on: Gardnerella vaginalis ATCC 14018; test: MBC against Gardnerella vaginalis; assay type: cell-based; conditions: substance alone
Method: as §1, with “The Gardnerella vaginalis ATCC 14018 strain, the Neisseria gonorrhoeae ATCC 43069 strain and the Candida albicans ATCC 10231 strain were also used for the experiment. [table] The other assayed microbial strains were cultured in the liquid media and in the incubation conditions specified in table A, following the operating procedure described above. Immediately” for “Immediately”

[9] = tested on: Gardnerella vaginalis ATCC 14018; test: MIC against Gardnerella vaginalis; assay type: cell-based; conditions: substance alone
Method: as §2, §3, §4, §5

[10] = ATCC 12386 in M-Hb blood 2%, substance alone
[11] = Strain 2 in M-Hb blood 2%, substance alone
[12] = Strain 10 in M-Hb blood 2%, substance alone
[13] = Strain 11 in M-Hb blood 2%, substance alone

Row | MIC (minimum inhibiting concentration) ([4]; strain 2, substance alone) [%] | MIC (minimum inhibiting concentration) ([4]; strain 5, substance alone) [%] | MIC (minimum inhibiting concentration) ([4]; strain 6, substance alone) [%] | MIC (minimum inhibiting concentration) ([4]; strain 7, substance alone) [%] | MIC (minimum inhibiting concentration) ([4]; strain 8, substance alone) [%] | MIC (minimum inhibiting concentration) ([4]; strain 9, substance alone) [%] | MIC (minimum inhibiting concentration) ([4]; strain 10, substance alone) [%] | MIC (minimum inhibiting concentration) ([4]; strain 11, substance alone) [%] | MIC (minimum inhibiting concentration) ([4]; strain 12, substance alone) [%] | MIC (minimum inhibiting concentration) ([4]; strain 13, substance alone) [%] | MIC (minimum inhibiting concentration) ([4]; strain 14, substance alone) [%] | MIC (minimum inhibiting concentration) ([4]; strain 15, substance alone) [%] | MIC (minimum inhibiting concentration) ([4]; strain 16, substance alone) [%] | MIC (minimum inhibiting concentration) ([4]; strain 17, substance alone) [%] | MIC (minimum inhibiting concentration) ([4]; strain 18, substance alone) [%] | MIC (minimum inhibiting concentration) ([4]; strain 19, substance alone) [%] | MIC (minimum inhibiting concentration) ([4]; strain 20, substance alone) [%] | MIC (minimum inhibiting concentration) ([4]; strain 21, substance alone) [%] | MIC (minimum inhibiting concentration) ([4]; strain 22, substance alone) [%] | MIC (minimum inhibiting concentration) ([4]; strain 23, substance alone) [%] | SMILES | other results
1 |  |  |  |  |  |  |  |  |  |  |  |  |  |  |  |  |  |  |  |  | CC1(C)S[C@@H]2[C@H](NC(=O)[C@H](N)c3ccccc3)C(=O)N2[C@H]1C(=O)O [Ampicillin, reference compound] | MBC ([1]; Streptococcus agalactiae, ATCC12386, ATCC 12386 in M-Hb blood 2%, reference antibiotic, read-out: MBC): 0.5 µg/mL (≈ 1.43 µM); MBC ([1]; Streptococcus agalactiae, Strain 2 in M-Hb blood 2%, reference antibiotic, read-out: MBC): < 0.06 µg/mL; MBC ([1]; Streptococcus agalactiae, Strain 10 in M-Hb blood 2%, reference antibiotic, read-out: MBC): 1 µg/mL (≈ 2.86 µM); MBC ([1]; Streptococcus agalactiae, Strain 11 in M-Hb blood 2%, reference antibiotic, read-out: MBC): < 0.06 µg/mL; concentrations required to perform the bactericidal action, times higher in strain 10 than against strain 2 and 11 ([1]; strain 10 versus strains 2 and 11): at least 15 times; MIC [2]: ≦0.000012%; MBC [3]: ≦0.000012%
2 | 0.25 | 0.25 | 0.25 | 0.25 | 0.25 | 0.25 | 0.25 | 0.25 | 0.25 | 0.25 | 0.25 | 0.25 | 0.25 | 0.25 | 0.25 | 0.25 | 0.25 | 0.25 | 0.25 | 0.25 | CCCCCCCCCCCC(=O)O [F, lauric acid] | MIC (minimum inhibiting concentration) ([4]; strain 24, substance alone): 0.25%; MIC (minimum inhibiting concentration) ([4]; strain 25, substance alone): 0.25%; MIC (minimum inhibiting concentration) ([4]; strain 12386, substance alone): 0.25%; MIC (minimum inhibiting concentration) ([4]; strain 12403, substance alone): 0.25%; MIC (minimum inhibiting concentration) ([4]; strain 27956, substance alone): 0.25%; solubility [5]: 10.1 mg/mL (≈ 50300 µM); MBC [1, 10]: 0.25; MBC [1, 11]: ≧0.25; MBC [1, 12]: ≧0.25; MBC [1, 13]: 0.25
3 | 0.11 | 0.11 | 0.11 | 0.11 | 0.22 | 0.11 | 0.22 | 0.11 | 0.11 | 0.11 | 0.11 | 0.11 | 0.11 | 0.11 | 0.22 | 0.11 | 0.11 | 0.11 | 0.11 | 0.11 | CCCCCCCCCCCC(=O)OCC(O)CO (stereo not drawn) [G, monolaurate] | MIC (minimum inhibiting concentration) ([4]; strain 24, substance alone): 0.11%; MIC (minimum inhibiting concentration) ([4]; strain 25, substance alone): 0.11%; MIC (minimum inhibiting concentration) ([4]; strain 12386, substance alone): 0.11%; MIC (minimum inhibiting concentration) ([4]; strain 12403, substance alone): 0.11%; MIC (minimum inhibiting concentration) ([4]; strain 27956, substance alone): 0.11%; MBC [1, 10]: 0.107; MBC [1, 11]: 0.107; MBC [1, 12]: 0.428; MBC [1, 13]: 0.107
4 |  |  |  |  |  |  |  |  |  |  |  |  |  |  |  |  |  |  |  |  | Clc1ccc(COC(Cn2ccnc2)c2ccc(Cl)cc2Cl)cc1 (stereo not drawn) [econazole] | MBC [6]: 0.0008%; MIC [7]: 0.000025%
5 |  |  |  |  |  |  |  |  |  |  |  |  |  |  |  |  |  |  |  |  | Cc1ncc([N+](=O)[O-])n1CCO [metronidazole, reference compound] | MBC [8]: 0.0008%; MIC [9]: 0.0004%
6 |  |  |  |  |  |  |  |  |  |  |  |  |  |  |  |  |  |  |  |  | Clc1ccc(COC(Cn2ccnc2)c2ccc(Cl)cc2Cl)c(Cl)c1 (stereo not drawn) [miconazole] | MBC [6]: 0.0008%; MIC [7]: 0.000012%
